target: human catalytic domain HDAC4 protein (amino acids 648-1032) (Homo sapiens (Human), UniProt P56524); experiment: Inhibition of HDAC4 catalytic domain enzymatic activity, fluorogenic substrate Boc-Lys(Tfa)-AMC; settings: read-out: Biochemical HDAC-4 IC50
Description: Analysis of Inhibition of HDAC4 with Class IIa Histone Deacetylase (HDAC) Inhibitors
The potency of Class IIa Histone Deacetylase (HDAC) inhibitors is quantified by measuring the Histone Deacetylase 4 (HDAC4) catalytic domain enzymatic activity using the fluorogenic substrate, Boc-Lys(Tfa)-AMC. The substrate is deacetylated to Boc-Lys-AMC by HDAC4. Cleavage by trypsin results in the release of the fluorophore AMC from the deacetylated substrate. The fluorescence of the sample is directly related to the histone deacetylase activity in the sample.
Serial dilutions of the HDAC inhibitors and control reference compound (1-(5-(3-((4-(1,3,4-oxadiazol-2-yl)phenoxy)methyl)-1,2,4-oxadiazol-5-yl)thiophen-2-yl)-2,2,2-trifluoroethanone) are made by first resuspending the lyophilized compound to a final concentration of 10 mM in 100% dimethyl sulfoxide (DMSO). Stocks of 60 μl aliquots of the 10 mM compound in DMSO are prepared and stored at −20° C. From one stock aliquot of each compound to be tested and the reference compound, a 16-point serial dilution is prepared according to
2 μl (200×) of each diluted solution and each control (full activity: 100% DMSO alone or full inhibition 1 mM) is stamped into V-bottomed polypropylene 384-well compound plates using either the Bravo (384-well head from Agilent) or 12.5 μl 16-channel Matrix multi-channel pipette (Matrix Technologies Ltd).
A working solution of enzyme is prepared from a 500 μg/ml stock aliquot of HDAC4 catalytic domain (thawed on ice) diluted to 0.2 μg/ml with assay buffer (50 mM Tris-HCl, 137 mM NaCl, 2.7 mM KCl, and 1 mM MgCl2 at pH 8 and equilibrated to room temperature) just prior to the addition of the enzyme to the assay.
5× (50 μM) substrate is prepared just prior to the addition to the assay. A 1 mM substrate stock is made by diluting a 100 mM Boc-Lys(Tfa)-AMC in DMSO solution 1:100 by adding it drop-wise to assay buffer (equilibrated to room temperature) while vortexing at slow speed to prevent precipitation. The 5× substrate is prepared by diluting the 1 mM substrate solution 1:20 by adding it drop-wise to assay buffer (equilibrated to room temperature) while vortexing at slow speed to prevent precipitation.
3× (30 μM) Developer/Stop Solution is prepared just prior to addition to the plate by diluting a stock solution of 10 mM reference compound 1:333 in 25 mg/ml trypsin (PAA Laboratories Ltd.) equilibrated to room temperature.
5 μl of each solution of 1:20 diluted compound from above is transferred to a clear bottomed, black, 384-well assay plate using the Bravo or the Janus (384-well MDT head from Perkin Elmer). Using a 16-channel Matrix multi-channel pipette, 35 μl of the working solution of HDAC4 catalytic domain enzyme (0.2 μg/ml in assay buffer) is transferred to the assay plate. The assay is then started by adding 10 μl of 5× (50 μM) substrate to the assay plates using either the Bravo, Janus or 16-channel Matrix multi-channel pipette. The assay plate is then shaken for two minutes on an orbital shaker at 900 rpm (rotations per minute). Next the plate is incubated for 15 minutes at 37° C. The reaction is stopped by adding 25 al of 3× (30 μM) developer/stop solution to the assay plates using either the Bravo, Janus or a 16-channel Matrix multi-channel pipette. Assay plates are then shaken for 5 minutes on an orbital shaker at 1200 rpm. Next, the assay plates are incubated at 37° C. for 1 hour in a tissue culture incubator. Finally, the fluorescence is measured (Excitation: 355 nm, Emission: 460 nm) using PerkinElmer EnVision in top read mode.

Sequence of human catalytic domain HDAC4 protein (amino acids 648-1032) (P56524 648-1032): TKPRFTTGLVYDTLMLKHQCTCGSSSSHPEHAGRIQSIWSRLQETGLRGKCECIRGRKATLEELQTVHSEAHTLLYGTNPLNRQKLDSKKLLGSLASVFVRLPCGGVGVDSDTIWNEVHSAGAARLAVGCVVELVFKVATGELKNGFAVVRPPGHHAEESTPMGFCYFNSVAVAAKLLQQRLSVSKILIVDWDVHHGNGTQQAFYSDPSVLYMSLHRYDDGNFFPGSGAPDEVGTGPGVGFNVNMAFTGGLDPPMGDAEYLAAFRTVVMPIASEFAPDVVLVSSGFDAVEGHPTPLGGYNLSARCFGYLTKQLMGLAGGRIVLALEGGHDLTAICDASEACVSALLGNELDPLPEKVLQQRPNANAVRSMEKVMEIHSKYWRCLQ

Question: `Cc1ncc(C2=C[C@@](C(=O)NO)(c3cccc(F)c3C)CC2)cn1` [Example 9, (R)-1-(3-fluoro-2-methylphenyl)-N-hydroxy-3-(2-methylpyrimidin-5-yl)cyclopent-2-enecarboxamide] was tested. Which IC50 did it give?
Answer: The IC50 was 26800 nM.

Question: `O=C(NO)[C@]1(c2ccccc2)C=C(c2ccccc2)CC1` [Example 33, (S)—N-hydroxy-1,3-diphenylcyclopent-2-enecarboxamide] was tested. Which IC50 did it give?
Answer: Its IC50 is 190 nM.

Question: How did the IC50 turn out when `O=C(NO)[C@@]1(c2ccccc2)C=C(c2ccccc2)CC1` [Example 34, (R)—N-hydroxy-1,3-diphenylcyclopent-2-enecarboxamide] was run?
Answer: Its IC50 is 31000 nM.

Question: How did the IC50 turn out when `O=C(NO)[C@]1(c2ccccc2)C=C(c2cncc(F)c2)CC1` [Example 35, (S)-3-(5-fluoropyridin-3-yl)-N-hydroxy-1-phenylcyclopent-2-enecarboxamide] was run?
Answer: The IC50 was 340 nM.

Question: For `Cc1ncc(Cl)cc1C1=C[C@](C(=O)NO)(c2cccc(F)c2C)CC1` [Example 36, (S)-3-(5-chloro-2-methylpyridin-3-yl)-1-(3-fluoro-2-methylphenyl)-N-hydroxycyclopent-2-enecarboxamide], which IC50 is on record?
Answer: The IC50 was 20 nM.

Question: For `Cc1ncccc1C1=C[C@](C(=O)NO)(c2cccc(F)c2C)CC1` [Example 37, (S)-1-(3-fluoro-2-methylphenyl)-N-hydroxy-3-(2-methylpyridin-3-yl)cyclopent-2-enecarboxamide], which IC50 is on record?
Answer: Its IC50 is 10 nM.

Question: For `Cc1c(F)cccc1[C@@]1(C(=O)NO)C=C(c2ccc3cnn(C)c3c2)CC1` [Example 38, (S)-1-(3-fluoro-2-methylphenyl)-N-hydroxy-3-(1-methyl-1H-indazol-6-yl)cyclopent-2-enecarboxamide], which IC50 is on record?
Answer: Its IC50 is 10 nM.

Question: `Cc1c(F)cccc1[C@@]1(C(=O)NO)C=C(c2ccc3cnn(C(F)F)c3c2)CC1` [Example 39, (S)-3-(1-(difluoromethyl)-1H-indazol-6-yl)-1-(3-fluoro-2-methylphenyl)-N-hydroxycyclopent-2-enecarboxamide] was tested. Which IC50 did it give?
Answer: Its IC50 is 30 nM.

Question: With `Cc1c(F)cccc1[C@@]1(C(=O)NO)C=C(c2ccc3scnc3c2)CC1` [Example 40, (S)-3-(benzo[d]thiazol-5-yl)-1-(3-fluoro-2-methylphenyl)-N-hydroxycyclopent-2-enecarboxamide] as the molecule, how does the IC50 read?
Answer: The IC50 was 10 nM.

Question: With `Cc1c(F)cccc1[C@@]1(C(=O)NO)C=C(c2cc3ccccc3s2)CC1` [Example 41, (S)-3-(benzo[b]thiophen-2-yl)-1-(3-fluoro-2-methylphenyl)-N-hydroxycyclopent-2-enecarboxamide] as the molecule, how does the IC50 read?
Answer: Its IC50 is 20 nM.

Question: How did the IC50 turn out when `Cc1c([C@@]2(C(=O)NO)C=C(c3ccc4cnn(C)c4c3)CC2)ccc(F)c1F` [Example 42, (S)-1-(3,4-difluoro-2-methylphenyl)-N-hydroxy-3-(1-methyl-1H-indazol-6-yl)cyclopent-2-enecarboxamide] was run?
Answer: Its IC50 is 10 nM.

Question: How did the IC50 turn out when `O=C(NO)C1(c2ccccc2)CC=C(c2cncc(F)c2)CC1` (stereo not shown) [Example 43, 4-(5-fluoropyridin-3-yl)-N-hydroxy-1,2,3,6-tetrahydro-[1,1′-biphenyl]-1-carboxamide] was run?
Answer: The IC50 was 3600 nM.

Question: For `Cc1c(F)cccc1C1(C(=O)NO)CC=C(c2cncc(F)c2)CC1` (stereo not shown) [Example 44, 3′-fluoro-4-(5-fluoropyridin-3-yl)-N-hydroxy-2′-methyl-1,2,3,6-tetrahydro-[1,1′-biphenyl]-1-carboxamide], which IC50 is on record?
Answer: Its IC50 is 490 nM.

Question: `Cc1c(F)cccc1C1(C(=O)NO)CC=C(c2ccc3nccnc3c2)CC1` (stereo not shown) [Example 45, 3′-fluoro-N-hydroxy-2′-methyl-4-(quinoxalin-6-yl)-1,2,3,6-tetrahydro-[1,1′-biphenyl]-1-carboxamide] was tested. Which IC50 did it give?
Answer: Its IC50 is 550 nM.

tested on: Jurkat E6-1 cells; experiment: Inhibition of cellular HDAC activity in Jurkat E6-1 cells, fluorogenic substrate Boc-Lys(Tfa)-AMC; assay type: cell-based; settings: read-out: Cell IC50
Description: Analysis of Inhibition of Cellular HDAC Activity with Class IIa Histone Deacetylase (HDAC) Inhibitors
The potency of Class IIa Histone Deacetylase (HDAC) inhibitors is quantified by measuring the cellular histone deacetylase enzymatic activity using the fluorogenic substrate, Boc-Lys(Tfa)-AMC. After penetration in Jurkat E6-1 cells, the substrate is deacetylated to Boc-Lys-AMC. After cell lysis and cleavage by trypsin, the fluorophore AMC is released from the deacetylated substrate only. The fluorescence of the sample is directly related to the histone deacetylase activity in the sample.
Jurkat E6.1 cells are cultured according to standard cell culture protocols in Jurkat E6.1 Growth Media (RPMI without phenol red, 10% FBS, 10 mM HEPES, and 1 mM Sodium Pyruvate). Jurkat E6.1 cells are counted using a Coulter Counter and resuspended in Jurkat E6.1 growth media at a concentration of 75,000 cells/35 μl. 35 μl or 75,000 cells is seeded into Greiner microtitre assay plates. The plates are then incubated at 37° C. and 5% CO2 while other assay components are being prepared. […]
5 μl of each solution of 1:20 diluted compound from above is transferred to the Greiner microtitre assay plates with 75,000 cells/well using the Bravo. […] Finally the top read fluorescence (Excitation: 355 nm, Emission: 460 nm) is measured using PerkinElmer EnVision.

Question: With `Cc1ncc(C2=C[C@@](C(=O)NO)(c3cccc(F)c3C)CC2)cn1` [Example 9, (R)-1-(3-fluoro-2-methylphenyl)-N-hydroxy-3-(2-methylpyrimidin-5-yl)cyclopent-2-enecarboxamide] as the molecule, how does the IC50 read?
Answer: The IC50 was over 50000 nM.

Question: Which IC50 does the source give for `Cc1ncc(C2=C[C@](C(=O)NO)(c3cccc(F)c3C)CC2)cn1` [Example 10, (S)-1-(3-fluoro-2-methylphenyl)-N-hydroxy-3-(2-methylpyrimidin-5-yl)cyclopent-2-enecarboxamide] here?
Answer: The IC50 was 380 nM.
